Test results as given in patent US6448204B1, “Herbicidal 2-aryloxy-4-methyl-6-pyrazol-1-yl-pyridines” (BASF Aktiengesellschaft, priority 1999, dated 2002).

Assays:
Format in all cases: in vivo
Setaria viridis (SETVI) [1] = experiment: Pre-emergence test; conditions: 3 weeks after treatment
Experimental: (§1) To evaluate their herbicidal activity, compounds according to the invention are tested using a representative range of plants: […] The pre-emergence tests involve spraying a liquid formulation of the compound onto the soil in which the seeds of the plant species mentioned above has recently been sown. The soil used in the tests is a prepared horticultural loam. […] In these tests untreated sown soil are used as controls.

Stellaria media (STEME) [2] = experiment: Pre-emergence test; conditions: 3 weeks after treatment
Experimental: as §1

[3] = system: Ambrosia artemisifolia (AMBEL); experiment: Pre-emergence test; conditions: 3 weeks after treatment
Experimental: as §1

[4] = system: Cassia obtusifolia (CASOB); experiment: Post-emergence test; conditions: 2-4 weeks after treatment
Experimental: (§2) To evaluate their herbicidal activity, compounds according to the invention are tested using a representative range of plants:
(§3) These acetone solutions are diluted with water and the resulting formulations applied at dosage levels equivalent of about 0.025 to 0.4 kg per hectare of test compound per pot. After spraying the plants are placed on greenhouse benches and are cared for in the usual manner, commensurate with conventional greenhouse practices. From 2 to 4 weeks after treatment, the seedling plants are examined and rated according to the rating system provided above.

Galium aparine (GALAP) = experiment: Post-emergence test; conditions: 2-4 weeks after treatment
Experimental: as §2, §3

[5] = system: Lolium multiflorum (LOLMU); experiment: Post-emergence test; conditions: 2-4 weeks after treatment
Experimental: as §2, §3

[6] = system: Alopecurus myosuroides (ALOMY); experiment: Post-emergence test; conditions: 2-4 weeks after treatment
Experimental: as §2, §3

[7] = system: Ipomoea hederacea (IPOHE); experiment: Post-emergence test; conditions: 2-4 weeks after treatment
Experimental: as §2, §3

[8] = system: Abutilon theophrasti (ABUTH); experiment: Post-emergence test; conditions: 2-4 weeks after treatment
Experimental: as §2, §3

[9] = system: Digitaria sanguinalis (DIGSA); experiment: Post-emergence test; conditions: 2-4 weeks after treatment
Experimental: as §2, §3

Lamium purpureum (LAMPU) = experiment: Post-emergence test; conditions: 2-4 weeks after treatment
Experimental: as §2, §3

[10] = system: Matricaria inodora (MATIN); experiment: Post-emergence test; conditions: 2-4 weeks after treatment
Experimental: as §2, §3

[11] = system: Echinochloa crus-galli (ECHCG); experiment: Post-emergence test; conditions: 2-4 weeks after treatment
Experimental: as §2, §3

Setaria viridis (SETVI) [12] = experiment: Post-emergence test; conditions: 2-4 weeks after treatment
Experimental: as §2, §3

Stellaria media (STEME) [13] = experiment: Post-emergence test; conditions: 2-4 weeks after treatment
Experimental: as §2, §3

[14] = system: Ambrosia artemisifolia (AMBEL); experiment: Post-emergence test; conditions: 2-4 weeks after treatment
Experimental: as §2, §3

Cc1cc(Oc2cc(C(F)(F)F)nn2C)nc(-n2ccc(C(F)(F)F)n2)c1 [Example 2, 4-methyl-2-(-3-trifluoromethyl-1H-prazol-1-yl)-6-(1-methyl-3-trifluoromethyl-pyrazol-5-yloxy)-pyridine]
Assessment rating SETVI (pre-emergence application) (Setaria viridis (SETVI) [1]; 0.013 kg/ha): 9 (9 - Complete kill) | Assessment rating SETVI (pre-emergence application) (Setaria viridis (SETVI) [1]; 0.025 kg/ha): 9 (9 - Complete kill) | Assessment rating SETVI (pre-emergence application) (Setaria viridis (SETVI) [1]; 0.100 kg/ha): 9 (9 - Complete kill) | Assessment rating SETVI (pre-emergence application) (Setaria viridis (SETVI) [1]; 0.400 kg/ha): 9 (9 - Complete kill) | Assessment rating STEME (pre-emergence application) (Stellaria media (STEME) [2]; 0.013 kg/ha): 6 (6 - Herbicidal effect) | Assessment rating STEME (pre-emergence application) (Stellaria media (STEME) [2]; 0.025 kg/ha): 9 (9 - Complete kill) | Assessment rating STEME (pre-emergence application) (Stellaria media (STEME) [2]; 0.100 kg/ha): 9 (9 - Complete kill) | Assessment rating STEME (pre-emergence application) (Stellaria media (STEME) [2]; 0.400 kg/ha): 9 (9 - Complete kill) | Assessment rating AMBEL (pre-emergence application) ([3]; 0.013 kg/ha): 4 (4 - Injury) | Assessment rating AMBEL (pre-emergence application) ([3]; 0.025 kg/ha): 7 (7 - Good herbicidal effect) | Assessment rating AMBEL (pre-emergence application) ([3]; 0.100 kg/ha): 8 (8 - Approaching complete kill) | Assessment rating AMBEL (pre-emergence application) ([3]; 0.400 kg/ha): 9 (9 - Complete kill) | Rating CASOB (post-emergence application) ([4]; 0.025 kg/ha): 9 (9 - Complete kill) | Rating CASOB (post-emergence application) ([4]; 0.100 kg/ha): 9 (9 - Complete kill) | Rating CASOB (post-emergence application) ([4]; 0.400 kg/ha): 9 (9 - Complete kill) | Rating GALAP (post-emergence application) (Galium aparine (GALAP); 0.025 kg/ha): 5 (5 - Definite injury) | Rating GALAP (post-emergence application) (Galium aparine (GALAP); 0.100 kg/ha): 6 (6 - Herbicidal effect) | Rating GALAP (post-emergence application) (Galium aparine (GALAP); 0.400 kg/ha): 8 (8 - Approaching complete kill) | Rating LOLMU (post-emergence application) ([5]; 0.025 kg/ha): 6 (6 - Herbicidal effect) | Rating LOLMU (post-emergence application) ([5]; 0.100 kg/ha): 9 (9 - Complete kill) | Rating LOLMU (post-emergence application) ([5]; 0.400 kg/ha): 9 (9 - Complete kill) | Rating ALOMY (post-emergence application) ([6]; 0.025 kg/ha): 4 (4 - Injury) | Rating ALOMY (post-emergence application) ([6]; 0.100 kg/ha): 8 (8 - Approaching complete kill) | Rating ALOMY (post-emergence application) ([6]; 0.400 kg/ha): 8 (8 - Approaching complete kill) | Rating IPOHE (post-emergence application) ([7]; 0.025 kg/ha): 9 (9 - Complete kill) | Rating IPOHE (post-emergence application) ([7]; 0.100 kg/ha): 9 (9 - Complete kill) | Rating IPOHE (post-emergence application) ([7]; 0.400 kg/ha): 9 (9 - Complete kill) | Rating ABUTH (post-emergence application) ([8]; 0.025 kg/ha): 6 (6 - Herbicidal effect) | Rating ABUTH (post-emergence application) ([8]; 0.100 kg/ha): 8 (8 - Approaching complete kill) | Rating ABUTH (post-emergence application) ([8]; 0.400 kg/ha): 9 (9 - Complete kill) | Rating DIGSA (post-emergence application) ([9]; 0.025 kg/ha): 6 (6 - Herbicidal effect) | Rating DIGSA (post-emergence application) ([9]; 0.100 kg/ha): 8 (8 - Approaching complete kill) | Rating DIGSA (post-emergence application) ([9]; 0.400 kg/ha): 9 (9 - Complete kill) | Rating LAMPU (post-emergence application) (Lamium purpureum (LAMPU); 0.025 kg/ha): 8 (8 - Approaching complete kill) | Rating LAMPU (post-emergence application) (Lamium purpureum (LAMPU); 0.100 kg/ha): 9 (9 - Complete kill) | Rating LAMPU (post-emergence application) (Lamium purpureum (LAMPU); 0.400 kg/ha): 9 (9 - Complete kill) | Rating MATIN (post-emergence application) ([10]; 0.025 kg/ha): 6 (6 - Herbicidal effect) | Rating MATIN (post-emergence application) ([10]; 0.100 kg/ha): 8 (8 - Approaching complete kill) | Rating MATIN (post-emergence application) ([10]; 0.400 kg/ha): 8 (8 - Approaching complete kill) | Rating ECHCG (post-emergence application) ([11]; 0.025 kg/ha): 6 (6 - Herbicidal effect) | Rating ECHCG (post-emergence application) ([11]; 0.100 kg/ha): 9 (9 - Complete kill) | Rating ECHCG (post-emergence application) ([11]; 0.400 kg/ha): 9 (9 - Complete kill) | Rating SETVI (post-emergence application) (Setaria viridis (SETVI) [12]; 0.025 kg/ha): 6 (6 - Herbicidal effect) | Rating SETVI (post-emergence application) (Setaria viridis (SETVI) [12]; 0.100 kg/ha): 8 (8 - Approaching complete kill) | Rating SETVI (post-emergence application) (Setaria viridis (SETVI) [12]; 0.400 kg/ha): 9 (9 - Complete kill) | Rating STEME (post-emergence application) (Stellaria media (STEME) [13]; 0.025 kg/ha): 8 (8 - Approaching complete kill) | Rating STEME (post-emergence application) (Stellaria media (STEME) [13]; 0.100 kg/ha): 9 (9 - Complete kill) | Rating STEME (post-emergence application) (Stellaria media (STEME) [13]; 0.400 kg/ha): 9 (9 - Complete kill) | Rating AMBEL (post-emergence application) ([14]; 0.025 kg/ha): 6 (6 - Herbicidal effect) | Rating AMBEL (post-emergence application) ([14]; 0.100 kg/ha): 8 (8 - Approaching complete kill) | Rating AMBEL (post-emergence application) ([14]; 0.400 kg/ha): 8 (8 - Approaching complete kill)
